Data from the supplement of paper PMC10307832.

Experiments:
Assay in all cases: relative viability (nuclei count vs DMSO), 5 days (fraction); higher = more cells survive
[1] = system: NCI-H1395
Outline: (§1)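 A single step with final 0.05% Triton X-100, 1% formaldehyde and 1 ug/ml Hoechst fixed the cells and stained nuclei 5 days after treatment. Lung cancer cell lines in 1536-well plates had been treated by pin tool the day after seeding with one drug alone or a fixed anchor-drug dose plus five library-drug doses (not always all listed) in √10 steps, and nuclei were counted on 4× images. Relative viability is the ratio of nuclei in treated wells to nuclei in vehicle wells, taken as the median of duplicate plates.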

[2] = system: NCI-H647
Outline: as §1

[3] = system: HCC-366
Outline: as §1

[4] = system: LU99A
Outline: as §1

[5] = system: CAL-12T
Outline: as §1

[6] = system: NCI-H1666
Outline: as §1

[7] = system: NCI-H520
Outline: as §1

[8] = system: NCI-H522
Outline: as §1

[9] = system: PC-3 [JPC-3]
Outline: as §1

[10] = system: HARA
Outline: as §1

[11] = system: LC-2-ad
Outline: as §1

[12] = system: HCC-15
Outline: as §1

[13] = system: NCI-H1975
Outline: as §1

[14] = system: NCI-H1993
Outline: as §1

[15] = system: NCI-H1734
Outline: as §1

[16] = system: NCI-H3122
Outline: as §1

[17] = system: NCI-H2228
Outline: as §1

[18] = system: PC-14
Outline: as §1

[19] = system: NCI-H661
Outline: as §1

[20] = system: H3255
Outline: as §1

[21] = system: NCI-H1944
Outline: as §1

[22] = system: SK-LU-1
Outline: as §1

[23] = system: COR-L 105
Outline: as §1

[24] = system: NCI-H838
Outline: as §1

CCCCCCCCCCCC1=C(O)C(=O)C=C(O)C1=O [Embelin] + O=C(CCCCCCC(=O)Nc1ccccc1)NO [Vorinostat] (partner 1 µM)
relative viability ([1]; first compound 0.08 µM): 0.615
relative viability ([1]; first compound 0.8 µM): 1
relative viability ([1]; first compound 2.53 µM): 0.48
relative viability ([1]; first compound 8 µM): 0.521
relative viability ([2]; first compound 0.08 µM): 0.58
relative viability ([2]; first compound 0.8 µM): 0.985
relative viability ([2]; first compound 2.53 µM): 0.732
relative viability ([2]; first compound 8 µM): 0.58
relative viability ([3]; first compound 0.08 µM): 0.409
relative viability ([3]; first compound 0.8 µM): 0.412
relative viability ([3]; first compound 2.53 µM): 0.364
relative viability ([3]; first compound 8 µM): 0.268
relative viability ([4]; first compound 0.08 µM): 0.56
relative viability ([4]; first compound 0.8 µM): 0.461
relative viability ([4]; first compound 2.53 µM): 0.586
relative viability ([4]; first compound 8 µM): 0.336
relative viability ([5]; first compound 0.08 µM): 0.848
relative viability ([5]; first compound 0.8 µM): 0.779
relative viability ([5]; first compound 2.53 µM): 0.677
relative viability ([5]; first compound 8 µM): 0.697
relative viability ([6]; first compound 0.08 µM): 1.07
relative viability ([6]; first compound 0.8 µM): 1.03
relative viability ([6]; first compound 2.53 µM): 1.09
relative viability ([6]; first compound 8 µM): 1.05
relative viability ([7]; first compound 0.08 µM): 0.741
relative viability ([7]; first compound 0.8 µM): 0.816
relative viability ([7]; first compound 2.53 µM): 0.75
relative viability ([7]; first compound 8 µM): 0.573
relative viability ([8]; first compound 0.08 µM): 0.876
relative viability ([8]; first compound 0.8 µM): 0.906
relative viability ([8]; first compound 2.53 µM): 0.763
relative viability ([8]; first compound 8 µM): 0.856
relative viability ([9]; first compound 0.08 µM): 0.614
relative viability ([9]; first compound 0.8 µM): 0.95
relative viability ([9]; first compound 2.53 µM): 0.68
relative viability ([9]; first compound 8 µM): 0.604
relative viability ([10]; first compound 0.08 µM): 0.559
relative viability ([10]; first compound 0.8 µM): 0.603
relative viability ([10]; first compound 2.53 µM): 0.545
relative viability ([10]; first compound 8 µM): 0.582
relative viability ([11]; first compound 0.08 µM): 0.759
relative viability ([11]; first compound 0.8 µM): 0.695
relative viability ([11]; first compound 2.53 µM): 0.716
relative viability ([11]; first compound 8 µM): 0.774
relative viability ([12]; first compound 0.08 µM): 0.906
relative viability ([12]; first compound 0.8 µM): 0.965
relative viability ([12]; first compound 2.53 µM): 0.908
relative viability ([12]; first compound 8 µM): 0.841
relative viability ([13]; first compound 0.08 µM): 0.717
relative viability ([13]; first compound 0.8 µM): 0.741
relative viability ([13]; first compound 2.53 µM): 0.75
relative viability ([13]; first compound 8 µM): 0.729
relative viability ([14]; first compound 0.08 µM): 0.825
relative viability ([14]; first compound 0.8 µM): 0.772
relative viability ([14]; first compound 2.53 µM): 0.764
relative viability ([14]; first compound 8 µM): 0.646
relative viability ([15]; first compound 0.08 µM): 0.868
relative viability ([15]; first compound 0.8 µM): 0.968
relative viability ([15]; first compound 2.53 µM): 0.929
relative viability ([15]; first compound 8 µM): 0.749
relative viability ([16]; first compound 0.08 µM): 0.816
relative viability ([16]; first compound 0.8 µM): 0.999
relative viability ([16]; first compound 2.53 µM): 1.01
relative viability ([16]; first compound 8 µM): 0.915
relative viability ([17]; first compound 0.08 µM): 0.407
relative viability ([17]; first compound 0.8 µM): 0.819
relative viability ([17]; first compound 2.53 µM): 0.36
relative viability ([17]; first compound 8 µM): 0.85
relative viability ([18]; first compound 0.08 µM): 0.746
relative viability ([18]; first compound 0.8 µM): 0.886
relative viability ([18]; first compound 2.53 µM): 0.586
relative viability ([18]; first compound 8 µM): 0.948
relative viability ([19]; first compound 0.08 µM): 0.787
relative viability ([19]; first compound 0.8 µM): 0.826
relative viability ([19]; first compound 2.53 µM): 0.788
relative viability ([19]; first compound 8 µM): 0.745
relative viability ([20]; first compound 0.08 µM): 0.873
relative viability ([20]; first compound 0.8 µM): 0.834
relative viability ([20]; first compound 2.53 µM): 0.711
relative viability ([20]; first compound 8 µM): 0.948
relative viability ([21]; first compound 0.08 µM): 0.577
relative viability ([21]; first compound 0.8 µM): 0.643
relative viability ([21]; first compound 2.53 µM): 0.656
relative viability ([21]; first compound 8 µM): 0.589
relative viability ([22]; first compound 0.08 µM): 0.892
relative viability ([22]; first compound 0.8 µM): 0.954
relative viability ([22]; first compound 2.53 µM): 0.75
relative viability ([22]; first compound 8 µM): 0.518
relative viability ([23]; first compound 0.08 µM): 0.867
relative viability ([23]; first compound 0.8 µM): 0.906
relative viability ([23]; first compound 2.53 µM): 0.904
relative viability ([23]; first compound 8 µM): 0.787
relative viability ([24]; first compound 0.08 µM): 0.746
relative viability ([24]; first compound 0.8 µM): 0.835
relative viability ([24]; first compound 2.53 µM): 0.782
relative viability ([24]; first compound 8 µM): 0.704
